Literature values, collected in patent US20090285811A1, “ANTI-INFLAMMATORY AND IMMUNOSUPPRESSIVE GLUCOCORTICOID STEROIDS” (Auspex Pharmaceuticals, Inc., priority 2008, published 2009).
Like-named read-outs stand apart in the source and are kept apart here.

Key:
glucocorticoid receptor = molecular target: T1, glucocorticoid receptor (Homo sapiens, UniProt P04150); details: primary human CYP3A metabolites of budesonide
T1 sequence (P04150 1-777): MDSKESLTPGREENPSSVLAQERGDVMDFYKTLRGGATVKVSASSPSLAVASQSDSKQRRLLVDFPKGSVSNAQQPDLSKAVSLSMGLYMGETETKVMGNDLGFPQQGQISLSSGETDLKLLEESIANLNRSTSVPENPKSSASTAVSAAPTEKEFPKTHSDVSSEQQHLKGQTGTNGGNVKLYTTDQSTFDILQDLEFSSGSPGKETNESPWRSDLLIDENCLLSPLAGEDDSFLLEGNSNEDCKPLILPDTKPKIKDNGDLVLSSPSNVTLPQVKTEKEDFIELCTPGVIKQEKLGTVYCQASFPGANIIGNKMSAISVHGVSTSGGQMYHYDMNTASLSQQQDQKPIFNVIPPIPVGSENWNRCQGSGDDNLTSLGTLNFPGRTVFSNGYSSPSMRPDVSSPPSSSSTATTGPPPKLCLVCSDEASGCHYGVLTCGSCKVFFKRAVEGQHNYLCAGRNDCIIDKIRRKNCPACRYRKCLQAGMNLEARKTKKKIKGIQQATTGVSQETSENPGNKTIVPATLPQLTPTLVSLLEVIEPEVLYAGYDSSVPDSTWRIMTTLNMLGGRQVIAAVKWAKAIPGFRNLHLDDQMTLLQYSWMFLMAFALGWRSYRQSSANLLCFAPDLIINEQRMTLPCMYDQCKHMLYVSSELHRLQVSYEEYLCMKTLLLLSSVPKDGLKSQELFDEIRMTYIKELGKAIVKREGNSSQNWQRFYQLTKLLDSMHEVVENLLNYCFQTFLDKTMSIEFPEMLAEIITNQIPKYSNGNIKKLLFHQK

Structure (SMILES) | potency compared with budesonide (glucocorticoid receptor) | systemic availability (after oral administration) | elimination half-life (in vivo) | systemic availability (intranasal administration) | clearance (non-oral routes of administration) | clearance (oral administration) [mL/min/kg]
CCCC1O[C@@H]2C[C@H]3[C@@H]4C[C@@H](O)C5=CC(=O)C=C[C@]5(C)[C@H]4[C@@H](O)C[C@]3(C)[C@]2(C(=O)CO)O1 (stereo partly drawn) [6β-hydroxybudesonide] | significantly less potent | – | – | – | – | –
CCCC1O[C@@H]2C[C@H]3[C@@H]4CCC5=CC(=O)C=C[C@]5(C)[C@H]4[C@@H](O)C[C@]3(C)[C@]2(C(=O)CO)O1 (stereo partly drawn) [Budesonide, 16,17-(butylidenebis(oxy))-11,21-dihydroxy-, (11-β,16-α)-pregna-1,4-diene-3,20-dione] | – | approximately 12% | approximately 2 hours | about 20% | about 20 mL/min/Kg | ~40
C[C@]12C=CC(=O)C=C1CC[C@@H]1[C@@H]2[C@@H](O)C[C@@]2(C)[C@H]1C[C@@H](O)[C@]2(O)C(=O)CO [16α-hydroxyprednisolone] | significantly less potent | – | – | – | – | –
